In ChEMBL document CHEMBL6087402, “Design, synthesis, and in vitro and in vivo biological evaluation of dihydroartemisinin derivatives as potent anti-cancer agents with ferroptosis-inducing and apoptosis-activating properties” (Eur J Med Chem, 2025):
Activity calls are given as the source filed them. The rule behind the calls is not given here. Peptide text beside a SMILES is read from it. * marks the point of attachment. Cbz = O=C(OCc1ccccc1)*; CH2F = FC*

How the values were obtained:
HCT-116 [1] = test: Anti-proliferative activity against human HCT-116 cells incubated for 72 hrs by MTT assay; assay type: functional, cell-based; conditions: HCT-116, 72 h
SW-620 = test: Anti-proliferative activity against human SW620 cells incubated for 72 hrs by MTT assay; assay type: functional, cell-based; conditions: SW-620, 72 h
[2] = Selectivity index, ratio of IC50 for human L02 cells to IC50 for human A549 cells; assay type: toxicity; conditions: L02 cells versus A549 cells, read-out: Ratio IC50
[3] = Anti-proliferative activity against human L02 cells incubated for 72 hrs by MTT assay; assay type: toxicity, cell-based
[4] = Selectivity index, ratio of IC50 for human L02 cells to IC50 for human HCT-116 cells; assay type: toxicity; conditions: L02 cells versus HCT-116 cells, read-out: Ratio IC50
A549 = test: Anti-proliferative activity against human A549 cells incubated for 72 hrs by MTT assay; assay type: functional, cell-based; conditions: A549, 72 h
[5] = Selectivity index, ratio of IC50 for human L02 cells to IC50 for human Bel-7402 cells; assay type: toxicity; conditions: L02 cells versus Bel-7402 cells, read-out: Ratio IC50
Bel-7402 = test: Anti-proliferative activity against human Bel-7402 cells incubated for 72 hrs by MTT assay; assay type: functional, cell-based; conditions: Bel-7402, 72 h
[6] = Selectivity index, ratio of IC50 for human L02 cells to IC50 for human SW620 cells; assay type: toxicity; conditions: L02 cells versus SW620 cells, read-out: Ratio IC50
HCT-116 [7] = test: Cytotoxicity against human HCT-116 cells assessed as cell viability at 10 uM; assay type: functional, cell-based
HCT-116 [8] = test: Cytotoxicity against human HCT-116 cells assessed as cell viability at 5 uM; assay type: functional, cell-based
HCT-116 [9] = test: Inhibition of cell proliferation in human HCT-116 cells at 3 uM incubated for 12 hrs by EdU assay (reference value: 48.14 %); assay type: functional
HCT-116 [10] = test: Cytotoxicity against human HCT-116 cells assessed as cell viability upto 20 uM; assay type: functional, cell-based

Structure (SMILES) | IC50 (HCT-116 [1]) | IC50 (SW-620) | selectivity ratio [2] | IC50 at 72 h [3] | selectivity ratio [4] | IC50 (A549) | selectivity ratio [5] | IC50 (Bel-7402) | selectivity ratio [6] | Activity (HCT-116 [7]) | Activity (HCT-116 [8]) | inhibition at 3 µM (HCT-116 [9]) | Activity (HCT-116 [10])
Cc1ccc(NC(=O)OC2O[C@@H]3O[C@@]4(C)CC[C@@H]5[C@H](C)CC[C@@H]([C@H]2C)[C@@]35OO4)cc1 (some centres undefined) | 0.59 µM | 0.79 µM | 7.82 | 15.6 µM | 26.5 | 2 µM | 1.93 | 8.1 µM | 19.8 |  |  |  | 
C[C@@H]1CC[C@H]2[C@@H](C)C(OC(=O)c3cnc4ccccc4c3)O[C@@H]3O[C@@]4(C)CC[C@H]1[C@]32OO4 (some centres undefined) | 2.62 µM | > 10 µM |  |  |  | > 10 µM |  | 8.4 µM |  |  |  |  | 
COc1ccc(-n2cc(COC(=O)CCC(=O)OC3O[C@@H]4O[C@@]5(C)CC[C@@H]6[C@H](C)CC[C@@H]([C@H]3C)[C@@]46OO5)nn2)cc1 (some centres undefined) | 2.78 µM | 1.59 µM |  |  |  | 7.18 µM |  | > 10 µM |  |  |  |  | 
C[C@@H]1CC[C@H]2[C@@H](C)C(OC(=O)c3ccc(Cn4cc(Cl)cn4)cc3)O[C@@H]3O[C@@]4(C)CC[C@H]1[C@]32OO4 (some centres undefined) | 2.6 µM | 5.17 µM |  |  |  | 5.07 µM |  | > 10 µM |  |  |  |  | 
C[C@@H]1CC[C@H]2[C@@H](C)C(OC(=O)c3ccc4ncccc4c3)O[C@@H]3O[C@@]4(C)CC[C@H]1[C@]32OO4 (some centres undefined) | 3.22 µM | 3.02 µM |  |  |  | > 10 µM |  | > 10 µM |  |  |  |  | 
CCCCCCCNC(=O)OC1O[C@@H]2O[C@@]3(C)CC[C@@H]4[C@H](C)CC[C@@H]([C@H]1C)[C@@]24OO3 (some centres undefined) | 1.19 µM | 3.9 µM |  |  |  | 8 µM |  | > 10 µM |  |  |  |  | 
C[C@@H]1CC[C@H]2[C@@H](C)C(OC(=O)c3ccc(CN4CCCCC4)cc3)O[C@@H]3O[C@@]4(C)CC[C@H]1[C@]32OO4 (some centres undefined) | 2.31 µM | 7.1 µM |  |  |  | > 10 µM |  | > 10 µM |  |  |  |  | 
C[C@@H]1CC[C@H]2[C@@H](C)C(OC(=O)Nc3ccccc3)O[C@@H]3O[C@@]4(C)CC[C@H]1[C@]32OO4 (some centres undefined) | 0.72 µM | 1.34 µM | 3.2 | 13.4 µM | 18.6 | 4.18 µM | 2.9 | 4.62 µM | 9.99 |  |  |  | 
C[C@@H]1CC[C@H]2[C@@H](C)C(OC(=O)c3cn(-c4ccc(Cl)cc4)nn3)O[C@@H]3O[C@@]4(C)CC[C@H]1[C@]32OO4 (some centres undefined) | 3.12 µM | 8.21 µM |  |  |  | > 10 µM |  | 9.24 µM |  |  |  |  | 
C[C@@H]1CC[C@H]2[C@@H](C)C(OC(=O)c3cn(-c4ccc(F)cc4)nn3)O[C@@H]3O[C@@]4(C)CC[C@H]1[C@]32OO4 (some centres undefined) | 3.38 µM | 9.51 µM |  |  |  | > 10 µM |  | > 10 µM |  |  |  |  | 
COc1ccc(NC(=O)OC2O[C@@H]3O[C@@]4(C)CC[C@@H]5[C@H](C)CC[C@@H]([C@H]2C)[C@@]35OO4)cc1 (some centres undefined) | 0.92 µM | 1.06 µM | 6.38 | 37 µM | 40.2 | 5.8 µM | 4.46 | 8.3 µM | 34.9 |  |  |  | 
C[C@@H]1CC[C@H]2[C@@H](C)C(OC(=O)c3cccc4ncccc34)O[C@@H]3O[C@@]4(C)CC[C@H]1[C@]32OO4 (some centres undefined) | 3.73 µM | 3.01 µM |  |  |  | > 10 µM |  | > 10 µM |  |  |  |  | 
C[C@@H]1CC[C@H]2[C@@H](C)C(OC(=O)CCC(=O)OCc3cn(-c4ccc(Cl)cc4)nn3)O[C@@H]3O[C@@]4(C)CC[C@H]1[C@]32OO4 (some centres undefined) | 3.03 µM | 1.1 µM |  |  |  | > 10 µM |  | > 10 µM |  |  |  |  | 
CCOC(=O)c1ccc(NC2CCCCC2)c(N)c1 |  |  |  |  |  |  |  |  |  | inactive |  |  | 
C[C@@H]1CC[C@H]2[C@@H](C)C(OC(=O)CCC(=O)NCCc3c[nH]c4ccc(Cl)cc34)O[C@@H]3O[C@@]4(C)CC[C@H]1[C@]32OO4 (some centres undefined) | 4.99 µM | 1.73 µM |  |  |  | 7.25 µM |  | > 10 µM |  |  |  |  | 
C[C@@H]1CC[C@H]2[C@@H](C)C(OC(=O)CCC(=O)NCCc3c[nH]c4ccccc34)O[C@@H]3O[C@@]4(C)CC[C@H]1[C@]32OO4 (some centres undefined) | 6.74 µM | 1.81 µM |  |  |  | > 10 µM |  | > 10 µM |  |  |  |  | 
COc1ccc(-n2cc(COC(=O)CCC(=O)OC3O[C@@H]4O[C@@]5(C)CC[C@@H]6[C@H](C)CC[C@@H]([C@H]3C)[C@@]46OO5)nn2)cc1OC (some centres undefined) | 1.79 µM | 2.89 µM |  |  |  | 8.03 µM |  | > 10 µM |  |  |  |  | 
CC(=O)N(O)CCCCCNC(=O)CCC(=O)N(O)CCCCCNC(=O)CCC(=O)N(O)CCCCCN |  |  |  |  |  |  |  |  |  |  | inactive |  | 
CCCNC(=O)OC1O[C@@H]2O[C@@]3(C)CC[C@@H]4[C@H](C)CC[C@@H]([C@H]1C)[C@@]24OO3 (some centres undefined) | > 10 µM | > 10 µM | 13.6 | 12.1 µM | 25.8 | > 10 µM | < 1.21 | > 10 µM | 2.78 |  |  |  | 
C[C@@H]1CC[C@H]2[C@@H](C)C(OC(=O)Nc3ccc(F)cc3)O[C@@H]3O[C@@]4(C)CC[C@H]1[C@]32OO4 (some centres undefined) | 0.51 µM | 1.01 µM | 2.85 | 9.13 µM | 17.9 | 3.2 µM | 1.05 | 8.7 µM | 9.04 |  |  |  | 
COc1ccc(-n2cc(C(=O)OC3O[C@@H]4O[C@@]5(C)CC[C@@H]6[C@H](C)CC[C@@H]([C@H]3C)[C@@]46OO5)nn2)cc1OC (some centres undefined) | 3.39 µM | 9.61 µM |  |  |  | > 10 µM |  | 8.62 µM |  |  |  |  | 
C[C@@H]1CC[C@H]2[C@@H](C)C(OC(=O)c3ccc(Cn4cncn4)cc3)O[C@@H]3O[C@@]4(C)CC[C@H]1[C@]32OO4 (some centres undefined) | 3.39 µM | 8.32 µM |  |  |  | 7.19 µM |  | > 10 µM |  |  |  |  | 
COc1cc(-n2cc(C(=O)OC3O[C@@H]4O[C@@]5(C)CC[C@@H]6[C@H](C)CC[C@@H]([C@H]3C)[C@@]46OO5)nn2)cc(OC)c1OC (some centres undefined) | 4.32 µM | 1.9 µM |  |  |  | > 10 µM |  | > 10 µM |  |  |  |  | 
C[C@H]1[C@@H](O)O[C@@H]2O[C@@]3(C)CC[C@H]4[C@H](C)CC[C@@H]1[C@@]24OO3 [ARTENIMOL] | 5.1 µM | 6.61 µM | 0.43 | 8.43 µM | 1.65 | 19.4 µM | 0.2 | 43.2 µM | 1.28 |  |  | 24.5% | 
C[C@@H]1CC[C@H]2[C@@H](C)C(OC(=O)CCc3nc(-c4ccc(F)cc4)no3)O[C@@H]3O[C@@]4(C)CC[C@H]1[C@]32OO4 (some centres undefined) | 2.94 µM | 7.17 µM |  |  |  | 6.55 µM |  | 5.07 µM |  |  |  |  | 
CC(C)[C@H](NC(=O)OCc1ccccc1)C(=O)N[C@@H](C)C(=O)N[C@@H](CC(=O)O)C(=O)CF (Cbz-Val-Ala-Asp-CH2F) |  |  |  |  |  |  |  |  |  |  |  |  | inactive
C[C@@H]1CC[C@H]2[C@@H](C)C(OC(=O)CCC(=O)OCc3cn(-c4ccc(F)cc4)nn3)O[C@@H]3O[C@@]4(C)CC[C@H]1[C@]32OO4 (some centres undefined) | 2.21 µM | 2.33 µM |  |  |  | 6.28 µM |  | > 10 µM |  |  |  |  | 
C[C@@H]1CC[C@H]2[C@@H](C)C(OC(=O)c3cn(-c4ccc([N+](=O)[O-])cc4)nn3)O[C@@H]3O[C@@]4(C)CC[C@H]1[C@]32OO4 (some centres undefined) | > 10 µM | 4.22 µM |  |  |  | > 10 µM |  | > 10 µM |  |  |  |  | 
